Among the test systems are COLO 205 colon; HL-60(TB) leukemia; HOP-92 NSCLC; IGROV1 ovarian; MDA-N; NCI-H23 lung; NCI-H460 lung; OVCAR-3 ovarian; SF-268 CNS; SN12C renal.
What all share (experiment): NCI-60 cell line screen, 48 h

Structures are written as SMILES.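 Values below derive from 48-hour exposures of cells grown in 96-well plates, with endpoints linearly interpolated between the two concentrations bracketing the appropriate inhibition level. TGI: concentration producing complete growth inhibition.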

Consider `CSCCC(NCc1c(O)ccc2c(-c3ccccc3)cc(=O)oc12)C(=O)O` (stereo not given), for which the TGI with COLO 205 colon, in the experiment with HL-60(TB) leukemia, with HOP-92 NSCLC, with IGROV1 ovarian, in the experiment on MDA-N and with NCI-H23 lung was over 100 µM throughout. Moreover, the TGI with NCI-H460 lung, in the experiment on OVCAR-3 ovarian, with SF-268 CNS and in the experiment with SN12C renal was over 100 µM each time.

As for `CC(CC(C#N)(c1ccccc1)c1ccccc1)N1CCCCC1` (stereo not given), the TGI in the experiment with COLO 205 colon is 32.9 µM; in the experiment with HL-60(TB) leukemia it was 42.3 µM; with HOP-92 NSCLC it was over 100 µM; in the experiment with IGROV1 ovarian, over 100 µM; in the experiment with MDA-N, 46.7 µM; with NCI-H23 lung, over 100 µM. The TGI with NCI-H460 lung is 31.7 µM; in the experiment with OVCAR-3 ovarian it was 44.5 µM; in the experiment on SF-268 CNS, over 100 µM; with SN12C renal it was 74.5 µM.

As for `O=[N+]([O-])C(=C(N1CCCCC1)N1CCCCC1)/C(Cl)=C(\Cl)Br`, the TGI with COLO 205 colon was 38.7 µM; in the experiment on HL-60(TB) leukemia, 37.9 µM; in the experiment on HOP-92 NSCLC it was 53.4 µM; in the experiment with IGROV1 ovarian it was 90.8 µM; in the experiment with MDA-N, over 100 µM; in the experiment on NCI-H23 lung it was 41.2 µM. Moreover, the TGI was over 100 µM in the experiment on NCI-H460 lung, 81.4 µM in the experiment with OVCAR-3 ovarian, 87.9 µM with SF-268 CNS and over 100 µM in the experiment with SN12C renal.

In the case of `O=C1c2ccccc2CN1c1ccc(O)cc1`, the TGI in the experiment with COLO 205 colon, with HL-60(TB) leukemia, with HOP-92 NSCLC, in the experiment on IGROV1 ovarian, in the experiment on MDA-N and with NCI-H23 lung was over 100 µM each time. Also, the TGI in the experiment on NCI-H460 lung, with OVCAR-3 ovarian, in the experiment on SF-268 CNS and in the experiment with SN12C renal was over 100 µM throughout.

For `CC(=O)OC[C@]1(C(=O)C(O)c2ccoc2)[C@H](C)CC[C@@]23COC(=O)C2=CCC[C@@H]31` (stereo not given in full), the TGI with COLO 205 colon, in the experiment with HL-60(TB) leukemia, with HOP-92 NSCLC, in the experiment with IGROV1 ovarian, in the experiment with MDA-N and in the experiment on NCI-H23 lung was over 10 µM each time. Moreover, the TGI with NCI-H460 lung, in the experiment with OVCAR-3 ovarian, with SF-268 CNS and in the experiment on SN12C renal was over 10 µM in each case.

With `CCOC1CC(=O)c2c(Br)sc(Br)c21` (stereo not given), the TGI stood at 38.4 µM with COLO 205 colon; 48.6 µM with HL-60(TB) leukemia; 35.3 µM with HOP-92 NSCLC; 31 µM in the experiment with IGROV1 ovarian; 49.6 µM with MDA-N; 37.4 µM with NCI-H23 lung. For the same compound, the TGI is 43.1 µM in the experiment on NCI-H460 lung, 28.5 µM in the experiment with OVCAR-3 ovarian, 80.8 µM with SF-268 CNS and 58.4 µM with SN12C renal.

Take `COc1ccc(N2C(=O)c3c4c(c5c([nH]c6ncccc65)c3C2=O)CCC(C(C)(C)C)C4)cc1` (stereo not given): the TGI in the experiment on COLO 205 colon, in the experiment on HL-60(TB) leukemia, in the experiment with IGROV1 ovarian, in the experiment on MDA-N, with NCI-H23 lung and in the experiment with NCI-H460 lung was over 100 µM throughout. The TGI in the experiment with OVCAR-3 ovarian, with SF-268 CNS and in the experiment on SN12C renal was over 100 µM each time.

Consider `CN(C)NC(=S)Nc1ccccc1Br`, for which the TGI with COLO 205 colon, with HL-60(TB) leukemia, with HOP-92 NSCLC, in the experiment with IGROV1 ovarian, in the experiment with MDA-N and with NCI-H23 lung was over 100 µM each time. For the same compound, the TGI with NCI-H460 lung and in the experiment with OVCAR-3 ovarian was over 100 µM in each case.

Regarding `CC(C)(C)N=c1n(C(C)(C)C)oc(=O)n1C(C)(C)C`, the TGI in the experiment on COLO 205 colon, with HL-60(TB) leukemia, with HOP-92 NSCLC, in the experiment on IGROV1 ovarian, in the experiment on MDA-N and with NCI-H23 lung was over 100 µM in each case. The TGI with NCI-H460 lung, with OVCAR-3 ovarian and in the experiment on SN12C renal was over 100 µM in each case.

Turning to `Nc1c2ccccc2nc2c1ccc1ncccc12`, the TGI is over 100 µM in the experiment with COLO 205 colon; 20.4 µM with HL-60(TB) leukemia; over 100 µM in the experiment with HOP-92 NSCLC; over 100 µM in the experiment on IGROV1 ovarian; 74.7 µM with MDA-N; 75.6 µM in the experiment with NCI-H23 lung. Moreover, the TGI in the experiment on NCI-H460 lung is 47.4 µM; in the experiment on OVCAR-3 ovarian, over 100 µM; in the experiment on SN12C renal, over 100 µM.

Regarding `COc1ccc(Nc2nc3ccc(C(F)(F)F)cc3nc2C(=O)O)cc1OC`, the TGI with COLO 205 colon was over 100 µM; in the experiment on HL-60(TB) leukemia, 64.1 µM; with IGROV1 ovarian, over 100 µM; with MDA-N it was over 100 µM; in the experiment with NCI-H23 lung, 58.6 µM; in the experiment with NCI-H460 lung, 54.6 µM. For the same compound, the TGI in the experiment on OVCAR-3 ovarian is 40.8 µM; in the experiment with SF-268 CNS it was over 100 µM; in the experiment on SN12C renal, over 100 µM.

Regarding `O=C(CN1CCCCC1)CC(O)(C(F)(F)F)C(F)(F)F`, the TGI with COLO 205 colon, in the experiment with HL-60(TB) leukemia, in the experiment on HOP-92 NSCLC, with IGROV1 ovarian, with MDA-N and with NCI-H23 lung was over 100 µM throughout. The TGI in the experiment with NCI-H460 lung and in the experiment with OVCAR-3 ovarian was over 100 µM in each case.

Turning to `COC(=O)c1c(C)cccc1/C=C1/Cc2c(C)cccc2C1=O`, the TGI in the experiment with HL-60(TB) leukemia, with HOP-92 NSCLC, in the experiment with IGROV1 ovarian, with MDA-N, with NCI-H23 lung and with NCI-H460 lung was over 100 µM in each case. The TGI with OVCAR-3 ovarian, in the experiment on SF-268 CNS and with SN12C renal was over 100 µM each time.

In the case of `N#Cc1nc(-c2cc([N+](=O)[O-])cc([N+](=O)[O-])c2)oc1N`, the TGI in the experiment on COLO 205 colon, in the experiment with HL-60(TB) leukemia, in the experiment on HOP-92 NSCLC, in the experiment with IGROV1 ovarian, with MDA-N and in the experiment with NCI-H23 lung was over 10 µM in each case. Besides, the TGI in the experiment with NCI-H460 lung, in the experiment on SF-268 CNS and with SN12C renal was over 10 µM in each case.

Values taken from PubChem BioAssay (NCI).
